# Reference: article PMC12396291, “DNA-encoded library screening uncovers potent DNMT2 inhibitors targeting a cryptic allosteric binding site” (iScience, 2025)
# “Also recorded” adds a separate entry of the source.
# What was measured:
# [1] = target: T1, DNMT2 (Homo sapiens, UniProt O14717); assay: MST displacement assay with fluorescent FTAD probe; format: binding; design: Fnorm (MST screening): unit not given here; details: ligand 100 μM, FTAD probe
# T1 construct: Recombinant human DNMT2 (full-length); His-tag; made in house; host or cells: E. coli
# T1 sequence (O14717 1-391): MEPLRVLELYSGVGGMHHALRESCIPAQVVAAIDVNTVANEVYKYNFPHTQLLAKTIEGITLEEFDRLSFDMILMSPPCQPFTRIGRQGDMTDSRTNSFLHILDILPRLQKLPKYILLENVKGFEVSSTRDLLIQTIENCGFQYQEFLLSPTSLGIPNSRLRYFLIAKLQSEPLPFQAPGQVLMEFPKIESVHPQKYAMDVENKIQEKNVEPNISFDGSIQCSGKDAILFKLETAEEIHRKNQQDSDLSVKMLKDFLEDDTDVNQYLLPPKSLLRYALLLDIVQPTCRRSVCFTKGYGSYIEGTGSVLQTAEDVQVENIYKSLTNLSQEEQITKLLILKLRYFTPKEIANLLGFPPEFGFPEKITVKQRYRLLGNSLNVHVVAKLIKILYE
# Procedure: Screening for ligand binding and evaluation of dose-response affinity profiles was performed via microscale thermophoresis (MST) as described previously.[42] The measurements were conducted with a Nanotemper Technologies Monolith NT.115 device. All samples were measured in Monolith standard capillaries at 25 °C. The acquisition mode was set to “Nano-Blue” with an excitation power of 30% and a medium MST power, while the system was controlled using the software MO.Control (version 1.6.1) and for evaluation MO.Affinity Analysis (version 2.3) was used. The samples contained 2 μM DNMT2, 100 nM FTAD (5-FAM-triazolyl-adenosyl-Dab) probe, and 1.3% DMSO in MST buffer (50 mM HEPES, 150 mM NaCl, 1 mM dithiothreitol (DTT), 0.1% PEG-8000, 0.05% polysorbate-20, pH 7.4).[42] All compounds were employed at a final concentration of 100 μM for the initial ligand screening.
# [2] = Parallel artificial membrane permeation assay (PAMPA); format: in vitro ADME; details: 7 h incubation, duplicates
# Procedure: To determine the passive permeability of selected DNMT2 ligands, a parallel artificial membrane permeation assay (PAMPA) was performed as described previously.[68] The experiment was performed in duplicates with Sigma-Aldrich MAIPNTR10 donor plates with 5 μL of an artificial membrane (1% w/v L-α-phosphatidylcholine in n-dodecane) per well. After incubation for 7 h, the acceptor solutions were evaluated by LC/MS (HP Agilent 1100 Series). The peak areas in the UV chromatogram (λ = 210 nm) were used to calculate the areas under the curve (AUCs).
SMILES,Fnorm (% displ.): FTAD displacement [1] [%],Fnorm (MST screening) [1],Papp (PAMPA) [2]
CCc1ccc(C(=O)NCC2(C(=O)N[C@H](CC(=O)NCC(N)=O)Cc3c[nH]c4ccccc34)CC2)cc1 [Compound 31],4,857.0,
CCc1ccc(C(=O)NCC2(C(=O)N[C@@H](CC(=O)NCC(=O)O)Cc3c[nH]c4ccccc34)CC2)cc1 [Compound 9],46,907.7,
CCc1ccc(C(=O)NC2(C(=O)N[C@@H](CC(=O)NCC(N)=O)Cc3c[nH]c4ccccc34)CC2)cc1 [Compound 26],5,861.9,
CCc1ccc(C(=O)NCC2(C(=O)N[C@@H](CC(=O)N(C)CC(N)=O)Cc3ccccc3)CC2)cc1 [Compound 46],7,868.4,
CCc1ccc(C(=O)NCC2(C(=O)N(C)[C@@H](CC(=O)NCC(N)=O)Cc3ccccc3)CC2)cc1 [Compound 45],5,862.6,
CCc1ccc(C(=O)NCC2(C(=O)N[C@@H](CC(=O)NCC(N)=O)Cc3csc4ccccc34)CC2)cc1 [Compound 32],3,856.7,
CCc1ccc(C(=O)NCC2(C(=O)N[C@@H](CC(=O)NCC(N)=O)Cc3ccccc3)CC2)cc1 [Compound 14],,,failed to pass through the artificial membrane; also recorded: below detection limit
NC(=O)CNC(=O)C[C@@H](Cc1ccccc1)NC(=O)C1(CNC(=O)c2ccc(C3(C(F)(F)F)N=N3)cc2)CC1 [Compound 20],11,876.5,
Cc1ccc(C(=O)NCC2(C(=O)N[C@@H](CC(=O)NCC(N)=O)Cc3ccccc3)CC2)cc1 [Compound 11],24,891.2,
CCc1ccc(C(=O)NCC2(C(=O)N3Cc4ccccc4C[C@@H]3CC(=O)NCC(N)=O)CC2)cc1 [Compound 35],5,861.5,
CCc1ccc(C(=O)NCC2(C(=O)NCCC(=O)NCC(N)=O)CC2)cc1 [Compound 38],4,859.4,
CCc1ccc(C(=O)NCC2(C(=O)N[C@@H](CC(=O)NCC(=O)NCCOCCOCCOCCOC)Cc3ccccc3)CC2)cc1 [Compound 48],27,894.1,
COc1ccc(C(=O)NCC2(C(=O)N[C@@H](CC(=O)NCC(N)=O)Cc3ccccc3)CC2)cc1 [Compound 13],32,897.7,
CCc1ccc(C(=O)NCC2(C(=O)N[C@@H](CC(=O)NCC(N)=O)Cc3ccc4ccccc4c3)CC2)cc1 [Compound 36],5,861.7,
CCc1ccc(C(=O)NCC2(C(=O)N[C@@H](CC(=O)NCC(N)=O)Cc3ccc(I)cc3)CC2)cc1 [Compound 33],18,885.6,
CCc1ccc(C(=O)NCC2(C(=O)N[C@@H](CC(=O)N[C@@H](Cc3ccccc3)C(N)=O)Cc3ccccc3)CC2)cc1 [Compound 42],4,858.8,
NC(=O)CNC(=O)C[C@@H](Cc1ccccc1)NC(=O)C1(CNC(=O)C2CCCCC2)CC1 [Compound 22],5,864.4,
CCc1ccc(C(=O)NCC2(C(=O)N[C@@H](CC(=O)NCC(N)=O)Cc3ccc(O)cc3)CC2)cc1 [Compound 15],5,862.9,
CCc1ccc(C(=O)NCC2(C(=O)N[C@@H](CC(=O)NCC(N)=O)C(=O)O)CC2)cc1 [Compound 37],4,858.6,
NC(=O)CNC(=O)C[C@@H](Cc1ccccc1)NC(=O)C1(CNC(=O)c2ccccc2)CC1 [Compound 18],7,868.2,
CCc1ccc(C(=O)NCC2(C(=O)N[C@@H](CC(=O)NCC(=O)O)Cc3ccccc3)CC2)cc1 [Compound 54],,,failed to pass through the artificial membrane; also recorded: below detection limit
CCc1ccc(C(=O)NCC2(C(=O)N[C@@H](CC(=O)N[C@@H](C)C(N)=O)Cc3ccccc3)CC2)cc1 [Compound 39],8,871.4,
CCc1ccc(C(=O)NCC2(C(=O)N[C@@H](CC(=O)N[C@@H](C(N)=O)[C@@H](C)O)Cc3c[nH]c4ccccc34)CC2)cc1 [Compound 41],6,865.3,

# The next lines start with results.
Fnorm (% displ.): FTAD displacement [1] [%],Fnorm (MST screening) [1],SMILES,Papp (PAMPA) [2]
23,890.4,CCCc1ccc(C(=O)NCC2(C(=O)N[C@@H](CC(=O)NCC(N)=O)Cc3ccccc3)CC2)cc1 [Compound 12],
9,872.3,CCc1ccc(C(=O)NCC2(C(=O)N[C@@H](CC(=O)NCC(N)=O)Cc3ccccc3)C[C@H]2S(C)(=O)=O)cc1 (stereo partly shown) [Compound 29],
8,870.1,CCc1ccc(C(=O)NCC2(C(=O)N[C@@H](CC(=O)N[C@H](C)C(N)=O)Cc3ccccc3)CC2)cc1 [Compound 40],
7,869.7,CCc1ccc(C(=O)N(C)CC2(C(=O)NC(CC(=O)NCC(N)=O)Cc3ccccc3)CC2)cc1 (stereo not shown) [Compound 44],
5,863.8,CCc1ccc(C(=O)NCCC(=O)N[C@@H](CC(=O)NCC(N)=O)Cc2c[nH]c3ccccc23)cc1 [Compound 27],
10,874.7,CCc1ccc(C(=O)NCC2(C(=O)N[C@@H](CC(=O)NCCC(N)=O)Cc3ccccc3)CC2)cc1 [Compound 43],
71,924.6,CCc1ccc(C(=O)NCC2(C(=O)N[C@@H](CC(=O)NCC(N)=O)Cc3ccc(Br)cc3)CC2)cc1 [Compound 17],
4,860.8,CCc1ccc(C(=O)NC[C@H](N)C(=O)N[C@@H](CC(=O)NCC(N)=O)Cc2c[nH]c3ccccc23)cc1 [Compound 24],
5,864.4,CC(=O)NCC1(C(=O)N[C@@H](CC(=O)NCC(N)=O)Cc2ccccc2)CC1 [Compound 23],
5,862.4,CCc1ccc(C(=O)NCC2(C(=O)N[C@@H](CC(=O)NCC(N)=O)Cc3ccccc3)CC2)c(C)c1 [Compound 21],
8,871.4,C#Cc1ccc(C(=O)NCC2(C(=O)N[C@@H](CC(=O)NCC(N)=O)Cc3ccccc3)CC2)cc1 [Compound 19],
3,855.5,CCc1ccc(C(=O)NC[C@H](C)C(=O)N[C@@H](CC(=O)NCC(N)=O)Cc2c[nH]c3ccccc23)cc1 [Compound 25],
8,871.9,CCc1ccc(C(=O)NCC2(C(=O)N[C@@H](CC(=O)NCC(N)=O)Cc3ccccc3)C[C@H]2C(F)(F)F)cc1 (stereo partly shown) [Compound 28],
